Consider 33 molecules from US10206907B2, “Compounds useful for the treatment of degenerative and inflammatory diseases” (GALAPAGOS NV, priority 2008, dated 2019).

Broadly, the IC50 is the concentration that inhibits the measured activity by half.

SMILES strings stand for the structures.

In the test the target is Recombinant human JAK1 catalytic domain (Homo sapiens (Human), UniProt P23458). The test can be described thus: JAK1 inhibition assay. The test is classed as biochemical. The conditions noted are these: semi-quantitative score. As for the experimental part: Plates were washed 6 times with 300 μL per well of a 75 mM phosphoric acid solution and the bottom of the plates was sealed. 40 μL/well of Microscint-20 was added, the top of the plates was sealed and readout was performed using the Topcount (Perkin Elmer). Kinase activity was calculated by subtracting counts per minute (cpm) obtained in the presence of a positive control inhibitor (10 μM staurosporine) from cpm obtained in the presence of vehicle. The ability of a test compound to inhibit this activity was determined as: Percentage inhibition=((cpm determined for sample with test compound present−cpm determined for sample with positive control inhibitor) divided by (cpm determined in the presence of vehicle−cpm determined for sample with positive control inhibitor))*100%.
Recombinant human JAK1 catalytic domain, sequence (P23458 850-1154): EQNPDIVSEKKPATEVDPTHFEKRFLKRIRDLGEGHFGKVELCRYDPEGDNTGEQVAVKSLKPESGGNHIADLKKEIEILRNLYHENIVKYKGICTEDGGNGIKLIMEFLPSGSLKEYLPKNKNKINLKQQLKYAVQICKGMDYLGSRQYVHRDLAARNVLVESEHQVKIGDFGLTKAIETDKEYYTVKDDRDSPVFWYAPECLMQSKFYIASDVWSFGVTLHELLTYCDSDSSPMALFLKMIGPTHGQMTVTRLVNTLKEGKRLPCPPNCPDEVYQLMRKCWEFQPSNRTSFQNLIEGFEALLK
Dose dilution series were prepared for the compounds enabling the testing of dose-response effects in the JAK1 assay and the calculation of the IC50 for each compound.
Turning to `O=C(Nc1nc2cccc(-c3ccc(OCC(=O)N4CCCCC4)cc3)n2n1)C1CC1` [Compound 117, N-(5-(4-(2-oxo-2-(piperidin-1-yl)ethoxy)phenyl)-[1,2,4]triazolo[1,5-a]pyridin-2-yl)cyclopropanecarboxamide], the 50% inhibitory concentration (IC50) was greater than 1000 nM.
To `CN1CCN(Cc2ccc(COc3ccc(-c4cccc5nc(NC(=O)C6CC6)nn45)cc3)cc2)CC1` [Compound 126, N-(5-(4-(4-((4-methylpiperazin-1-yl)methyl)benzyloxy)phenyl)-[1,2,4]triazolo[1,5-a]pyridin-2-yl)cyclopropanecarboxamide] belongs 101 to 500 nM.
To `O=C(Nc1nc2cccc(-c3ccc(OCCc4cccnc4)cc3)n2n1)C1CC1` [Compound 127, N-(5-(4-(2-(pyridin-3-yl)ethoxy)phenyl)-[1,2,4]triazolo[1,5-a]pyridin-2-yl)cyclopropanecarboxamide] belongs 101 to 500 nM.
The value for `O=C(Nc1nc2cccc(-c3ccc(C(=O)N4CCC(c5nc6ccccc6[nH]5)CC4)cc3)n2n1)C1CC1` [Compound 128, N-(5-(4-(4-(1H-benzo[d]imidazol-2-yl)piperidine-1-carbonyl)phenyl)-[1,2,4]triazolo[1,5-a]pyridin-2-yl)cyclopropanecarboxamide] was 501 to 1000 nM; that for `O=C(Nc1nc2cccc(-c3ccc(N4CCOCC4)cc3)n2n1)C1CC1` [Compound 129, N-(5-(4-morpholinophenyl)-[1,2,4]triazolo[1,5-a]pyridin-2-yl)cyclopropanecarboxamide] was greater than 1000 nM.
In the case of `CN1CCN(Cc2ccc(-c3cccc4nc(NC(=O)C5CC5)nn34)cc2)CC1` [Compound 130, N-(5-(4-((4-methylpiperazin-1-yl)methyl)phenyl)-[1,2,4]triazolo[1,5-a]pyridin-2-yl)cyclopropanecarboxamide], the IC50 was greater than 1000 nM.
To `COc1ccccc1C1CCN(C(=O)c2ccc(-c3cccc4nc(NC(=O)C5CC5)nn34)cc2)CC1` [Compound 131, N-(5-(4-(4-(2-methoxyphenyl)piperidine-1-carbonyl)phenyl)-[1,2,4]triazolo[1,5-a]pyridin-2-yl)cyclopropanecarboxamide] belongs 101 to 500 nM; to `O=C(Nc1nc2cccc(-c3ccc(C(=O)N4CCC(O)(c5ccc(Cl)cc5)CC4)cc3)n2n1)C1CC1` [Compound 132], 101 to 500 nM; to `Cc1ccccc1OCC1CCN(C(=O)c2ccc(-c3cccc4nc(NC(=O)C5CC5)nn34)cc2)CC1` [Compound 133], 101 to 500 nM.
As for `CC(C)N(Cc1ccc(N2CCCCC2)cc1)C(=O)c1ccc(-c2cccc3nc(NC(=O)C4CC4)nn23)cc1` [Compound 135, 4-(2-(cyclopropanecarboxamido)-[1,2,4]triazolo[1,5-a]pyridin-5-yl)-N-isopropyl-N-(4-(piperidin-1-yl)benzyl)benzamide], the IC50 fell in the range of 101 to 500 nM.
To `CCCN(CC1CCCO1)C(=O)c1ccc(-c2cccc3nc(NC(=O)C4CC4)nn23)cc1` (stereo not drawn) [Compound 136, 4-(2-(cyclopropanecarboxamido)-[1,2,4]triazolo[1,5-a]pyridin-5-yl)-N-propyl-N-((tetrahydrofuran-2-yl)methyl)benzamide] belongs 101 to 500 nM; to `O=C(Nc1nc2cccc(-c3ccc(CN4CCCCC4)cc3)n2n1)C1CC1` [Compound 139, N-(5-(4-(pipcridin-1-ylmethyl)phenyl)-[1,2,4]triazolo[1,5-a]pyridin-2-yl)cyclopropanecarboxamide], 501 to 1000 nM; to `NC(=O)C1CCN(Cc2ccc(-c3cccc4nc(NC(=O)C5CC5)nn34)cc2)CC1` [Compound 140], 101 to 500 nM.
As to `CC(=O)N1CCN(Cc2ccc(-c3cccc4nc(NC(=O)C5CC5)nn34)cc2)CC1` [Compound 141, N-(5-(4-((4-acetoylpiperazin-1-yl)methyl)phenyl)-[1,2,4]triazolo[1,5-a]pyridin-2-yl)cyclopropanecarboxamide], the IC50 was 101 to 500 nM.
`O=C(Nc1nc2cccc(-c3ccc(CN4CCN(c5ccccn5)CC4)cc3)n2n1)C1CC1` [Compound 142, N-(5-(4-((4-(pyridin-2-yl)piperazin-1-yl)methyl)phenyl)-[1,2,4]triazolo[1,5-a]pyridin-2-yl)cyclopropanecarboxamide]: the IC50 was 101 to 500 nM.
For `O=C(Nc1nc2cccc(-c3ccc(CN4CCN(c5ncccn5)CC4)cc3)n2n1)C1CC1` [Compound 143, N-(5-(4-((4-(pyrimidin-2-yl)piperazin-1-yl)methyl)phenyl)-[1,2,4]triazolo[1,5-a]pyridin-2-yl)cyclopropanecarboxamide], the concentration for half-maximal inhibition (IC50) was 101 to 500 nM.
The value for `O=C(Nc1nc2cccc(-c3ccc(C(=O)N4CCC(CCc5ccccc5)CC4)cc3)n2n1)C1CC1` [Compound 147] was 101 to 500 nM; that for `O=C(Nc1nc2cccc(-c3ccc(C(=O)N4CCC(c5noc6cc(F)ccc56)CC4)cc3)n2n1)C1CC1` [Compound 149, N-(5-(4-(4-(6-fluorobenzo[d]isoxazol-3-yl)piperidine-1-carbonyl)phenyl)-[1,2,4]triazolo[1,5-a]pyridin-2-yl)cyclopropanecarboxamide] was 101 to 500 nM.
The value for `COCC(C)N(Cc1ccc(F)cc1)C(=O)c1ccc(-c2cccc3nc(NC(=O)C4CC4)nn23)cc1` (stereo not drawn) [Compound 151, 4-(2-(cyclopropanecarboxamido)-[1,2,4]triazolo[1,5-a]pyridin-5-yl)-N-(4-fluorobenzyl)-N-(1-methoxypropan-2-yl)benzamide] was 101 to 500 nM; that for `O=C(Nc1nc2cccc(-c3ccc(C(=O)N4CCC(n5nnc6ccccc65)CC4)cc3)n2n1)C1CC1` [Compound 152, N-(5-(4-(4-(1H-benzo[d][1,2,3]triazol-1-yl)piperidine-1-carbonyl)phenyl)-[1,2,4]triazolo[1,5-a]pyridin-2-yl)cyclopropanecarboxamide] was 101 to 500 nM.
To `O=C(Nc1nc2cccc(-c3ccc(C(=O)N(Cc4ccc(F)cc4)CC4CCCO4)cc3)n2n1)C1CC1` (stereo not drawn) [Compound 153, 4-(2-(cyclopropanecarboxamido)-[1,2,4]triazolo[1,5-a]pyridin-5-yl)-N-(4-fluorobenzyl)-N-((tetrahydrofuran-2-yl)methyl)benzamide] belongs 101 to 500 nM.
Regarding `Cc1nccn1CCC1CCN(C(=N)c2ccc(-c3cccc4nc(NC(=O)C5CC5)nn34)cc2)CC1` [Compound 154, N-(5-(4-(imino(4-(2-(2-methyl-1H-imidazol-1-yl)ethyl)piperidin-1-yl)methyl)phenyl)-[1,2,4]triazolo[1,5-a]pyridin-2-yI)cyclopropanecarboxamide], the 50% inhibitory concentration (IC50) was 101 to 500 nM.
The value for `CN(CCc1ccccn1)Cc1ccc(-c2cccc3nc(NC(=O)C4CC4)nn23)cc1` [Compound 155, N-(5-(4-((methyl(2-(pyridin-2-yl)ethyl)amino)methyl)phenyl)-[1,2,4]triazolo[1,5-a]pyridin-2-yl)cyclopropanecarboxamide] was greater than 1000 nM.
The value for `O=C(Nc1nc2cccc(-c3ccc(OCc4nnn[nH]4)cc3)n2n1)C1CC1` [Compound 158] was 101 to 500 nM; that for `CN(Cc1ccc(-c2ccccn2)cc1)Cc1ccc(-c2cccc3nc(NC(=O)C4CC4)nn23)cc1` [Compound 159, N-(5-(4-((methyl(4-(pyridin-2-yl)benzyl)amino)methyl)phenyl)-[1,2,4]triazolo[1,5-a]pyridin-2-yl)cyclopropanecarboxamide] was 101 to 500 nM.
To `Cc1cc(CN(C)Cc2ccc(-c3cccc4nc(NC(=O)C5CC5)nn34)cc2)nn1C` [Compound 160, N-(5-(4-((((1,5-dimethyl-1H-pyrazol-3-yl)methyl)(methyl)amino)methyl)phenyl)-[1,2,4]triazolo[1,5-a]pyridin-2-yl)cyclopropanecarboxamide] belongs 101 to 500 nM.
With `CN(Cc1ccc(-c2cncnc2)cc1)Cc1ccc(-c2cccc3nc(NC(=O)C4CC4)nn23)cc1` [Compound 161, N-(5-(4-((methyl(4-(pyrimidin-5-yl)benzyl)amino)methyl)phenyl)-[1,2,4]triazolo[1,5-a]pyridin-2-yl)cyclopropanecarboxamide], the 50% inhibitory concentration (IC50) was 501 to 1000 nM.
The value for `CN(Cc1cccnc1)c1ccc(-c2cccc3nc(NC(=O)C4CC4)nn23)cc1` [Compound 162, N-(5-(4-(methyl(pyridin-3-ylmethyl)amino)phenyl)-[1,2,4]triazolo[1,5-a]pyridin-2-yl)cyclopropanecarboxamide] was greater than 1000 nM; that for `O=C(Nc1nc2cccc(-c3ccc(OCc4ccc(N5CCOCC5)nc4)cc3)n2n1)C1CC1` [Compound 165] was 101 to 500 nM.
The value for `CN1CCN(c2ccc(COc3ccc(-c4cccc5nc(NC(=O)C6CC6)nn45)cc3)cn2)CC1` [Compound 167, N-(5-(4-((6-(4-methylpiperazin-1-yl)pyridin-3-yl)methoxy)phenyl)-[1,2,4]triazolo[1,5-a]pyridin-2-yl)cyclopropanecarboxamide] was 101 to 500 nM; that for `O=C(Nc1nc2cccc(-c3ccc(NCc4cccnc4)nc3)n2n1)C1CC1` [Compound 170, N-(5-(6-(pyridin-3-ylmethylamino)pyridin-3-yl)-[1,2,4]triazolo[1,5-a]pyridin-2-yl)cyclopropanecarboxamide] was 501 to 1000 nM; that for `O=C(Nc1nc2cccc(-c3ccc(NCc4ccccn4)nc3)n2n1)C1CC1` [Compound 171, N-(5-(6-(pyridin-2-ylmethylamino)pyridin-3-yl)-[1,2,4]triazolo[1,5-a]pyridin-2-yl)cyclopropanecarboxamide] was 101 to 500 nM.
To `O=C(Nc1nc2cccc(-c3ccc(NCCc4cccnc4)nc3)n2n1)C1CC1` [Compound 172, N-(5-(6-(2-(pyridin-3-yl)ethylamino)pyridin-3-yl)-[1,2,4]triazolo[1,5-a]pyridin-2-yl)cyclopropanecarboxamide] belongs 501 to 1000 nM.
